Consider one compound from patent US8097404B2, “Composition and method for cell permeabilization comprising N-octyl-β-D-glucopyranoside, sodium polyphosphates, rubidium chloride and/or lithium chloride for detecting living cells on a membrane” (Millipore Corporation, priority 2008, dated 2012).

This experiment concerns S. aureus (Gram-positive bacterium) ATCC 6538. The experiment in a line: Fluorescence detection of microcolonies on membrane after permeabilization and 5/6-CFDA labeling. Format: cell-based. Particulars: agent used alone. How it is done: The tested strains of E. coli (Gram-negative bacterium) ATCC 8739 and of S. aureus (Gram-positive bacterium) ATCC 6538 or B. subtilis (Gram-positive bacterium) ATCC 6633 were preserved in cryotubes (Dutscher, ref. 028049) frozen at −80° C. prepared from freeze-dried strains obtained from collections.
For all the tests, the bacteria strains are diluted in tubes of peptone water (Biomérieux, ref. 42111). A cascade dilution is performed by adding 1 ml of the cryotube of the strain used to 9 ml of the tube of peptone water until the desired dilution is obtained. The concentration was adjusted in order to obtain on average 30 bacteria per sample. This concentration was verified on a Petri dish by a conventional count test on agar medium. […]
A universal fluorogenic marker, namely 5/6-carboxyfluorescein diacetate (CFDA) (Sigma 21879-100MG) diluted in DMSO, is added to the permeabilization compositions in order to reach a final concentration of 100 μg/ml. […] The membrane is then removed from the labeling solution and placed in an illuminator equipped with a camera in order to measure the fluorescence emitted between 520 and 530 nm.
The fluorescence intensity results summarized in Tables 1 to 3 below correspond to the light energy (luminescence) captured and recorded to the nearest pixel by the CCD camera using the Sherlock image analyzing software (Insosys Inc.). […]

As for `CCCCCCCCO[C@@H]1O[C@H](CO)[C@@H](O)[C@H](O)[C@H]1O` [N-Octyl-β-D-glucopyranoside], the “Permeabilization of Gram-positive bacteria, in words” value is reported as “unsuitable”.
